# Patent US9512128B2 (BAYER CROPSCIENCE AG, priority 2012, dated 2016)
# Where two headings read alike, the source gives them in different places.
# Experiments:
# [1] = log P by HPLC on reversed-phase columns (C 18), EEC directive 79/831 Annex V.A8; format: physicochemical; settings: for logP[a]: method [a]; for logP[b]: method [b]; for chromatographic logP: reversed-phase C18 HPLC column
# Method in brief: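 Measured by reversed-phase C18 HPLC (LC-MS) with a linear 10→95% acetonitrile gradient. Acidic: pH 2.7, 0.1% formic acid. Neutral: pH 7.8, 0.001 M ammonium bicarbonate.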
# [2] = test system: larvae of the mustard beetle (Phaedon cochleariae); assay: Phaedon cochleariae spray test (PHAECO); format: in vivo; settings: application rate 500 g/ha, after 7 days, Chinese cabbage leaf discs
# Experimental: 2. Phaedon cochleariae Spray Test (PHAECO)
# • Solvents: 78.0 parts by weight of acetone • 1.5 part by weight of dimethylformamide • Emulsifier: 0.5 part by weight of alkylaryl polyglycol ether
# To produce a suitable preparation of active compound, 1 part by weight of active compound is mixed with the stated amounts of solvents and emulsifier, and the concentrate is diluted with emulsifier-containing water to the desired concentration.
# After 7 days, the efficacy in % is determined. 100% means that all of the beetle larvae have been killed; 0% means that none of the beetle larvae have been killed.
# [3] = test system: greenhouse red spider mite (Tetranychus urticae); assay: Tetranychus urticae spray test, OP-resistant (TETRUR); format: in vivo; settings: after 6 days, bean leaf discs
# Method in brief: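 Bean leaf discs infested with all stages of an OP-resistant strain are sprayed with compound in acetone/DMF with alkylaryl polyglycol ether emulsifier, diluted in water; % mortality after 6 days (100% = all mites killed).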
# [4] = test system: southern root-knot nematode (Meloidogyne incognita); assay: Meloidogyne incognita test (MELGIN); format: in vivo; settings: application rate 20 ppm, after 14 days, lettuce
# Experimental: 5. Meloidogyne incognita Test (MELGIN) • Solvent: 125.0 parts by weight of acetone To prepare a suitable active compound preparation, 1 part by weight of active compound is mixed with the stated amount of solvent and the concentrate is diluted with water to the desired concentration. Vessels are filled with sand, active compound solution, an egg/larvae suspension of the southern root-knot nematode (Meloidogyne incognita) and lettuce seeds. The lettuce seeds germinate and the plants develop. On the roots, galls are formed. After 14 days, the nematicidal effect in % is determined by the formation of galls. 100% means that no galls have been found; 0% means that the number of galls on the treated plants corresponds to the untreated control.
# [5] = pH 2.7, acidic range, pH 2.7, 0.1% aqueous formic acid / acetonitrile, read-out: log P[a]
# [6] = pH 2.7, method [a], read-out: logP[a]
# [7] = pH 7.8, method [b], read-out: logP[b]
# [8] = pH 7.8, neutral range, pH 7.8, 0.001 molar aqueous ammonium bicarbonate / acetonitrile, read-out: log P[b]
Compound,logP[a] [1],logP[b] [1],efficacy in % (beetle larvae killed) [2],"chromatographic logP [1, 5]","chromatographic logP [1, 6]","chromatographic logP [1, 7]","chromatographic logP [1, 8]",efficacy in % (spider mites killed) ([3]; application rate 500 g/ha),nematicidal effect in % (formation of galls) [4],efficacy in % (spider mites killed) ([3]; application rate 100 g/ha)
Cc1c2c(=O)n(-c3ccc(C#N)c([S+]([O-])CC(F)(F)F)c3)cnc2nn1C (racemic) [Compound 51],1.52,1.50,100%,–,–,–,–,–,–,–
"Cc1cc(F)c(-n2cnc3c(cnn3C)c2=O)cc1SCC(F)(F)F [Compound 1, 5-{2-Fluoro-4-methyl-5-[(2,2,2-trifluoroethyl)sulphanyl]phenyl}-1-methyl-1,5-dihydro-4H-pyrazolo[3,4-d]pyrimidin-4-one]",–,–,100%,2.66,2.66,2.65,2.65,90%,–,–
Cc1nn(C)c2ncn(-c3ccc(C#N)c(SCC(F)(F)F)c3)c(=O)c12 [Compound 34],2.30,2.24,100%,–,–,–,–,–,–,–
Cc1nn(C)c2ncn(-c3ccc(Cl)c([S+]([O-])CC(F)(F)F)c3)c(=O)c12 (stereo not drawn) [Compound 37],2.01,1.98,–,–,–,–,–,90%,80%,–
Cc1ccc(-n2cnc3nn(C)c(C)c3c2=O)cc1[S+]([O-])CC(F)(F)F (stereo not drawn) [Compound 47],1.54,1.51,–,–,–,–,–,90%,80%,–
Cc1cc(F)c(-n2cnc3scnc3c2=O)cc1SCC(F)(F)F [Compound 60],2.54,2.52,100%,–,–,–,–,–,–,–
Cc1nc2c(=O)n(-c3cc(SCC(F)(F)F)c(C)cc3C)cnc2s1 [Compound 72],2.92,2.86,–,–,–,–,–,90%,90%,–
Cc1nc2c(=O)n(-c3cc([S+]([O-])CC(F)(F)F)c(C)cc3C)cnc2s1 (stereo not drawn) [Compound 75],1.84,1.81,–,–,–,–,–,90%,80%,–
Cc1cc(F)c(-n2cnc3ncsc3c2=O)cc1SCC(F)(F)F [Compound 78],2.51,2.48,–,–,–,–,–,90%,90%,–
N#Cc1cc(F)c(-n2cnc3sccc3c2=O)cc1SCC(F)(F)F [Compound 82],2.70,2.67,100%,–,–,–,–,–,–,–
"Cc1ccc(-n2cnc3sccc3c2=O)cc1[S+]([O-])CC(F)(F)F (stereo not drawn) [Compound 86, 3-{4-Methyl-3-[(2,2,2-trifluoroethyl)sulphinyl]phenyl}thieno[2,3-d]pyrimidin-4(3H)-one]",–,–,–,1.94,1.94,1.93,1.93,90%,90%,–
N#Cc1ccc(-n2cnc3sccc3c2=O)cc1[S+]([O-])CC(F)(F)F (stereo not drawn) [Compound 88],2.07,2.00,100%,–,–,–,–,–,–,–
N#Cc1ccc(-n2cnc3sccc3c2=O)cc1[S+]([O-])CC(F)(F)F (stereo not drawn) [Compound 95],1.89,1.87,100%,–,–,–,–,–,–,–
Cc1cc(F)c(-n2cnc3sccc3c2=O)cc1[S+]([O-])CC(F)(F)F (stereo not drawn) [Compound 96],2.10,2.09,100%,–,–,–,–,100%,90%,–
N#Cc1ccc(-n2cnc3ccsc3c2=O)cc1[S+]([O-])CC(F)(F)F (stereo not drawn) [Compound 105],1.79,1.75,100%,–,–,–,–,–,–,–
O=c1c2sccc2ncn1-c1ccc(Cl)c([S+]([O-])CC(F)(F)F)c1 (stereo not drawn) [Compound 106],2.07,2.03,83%,–,–,–,–,–,–,–
Cc1cc(F)c(-n2cnc3ccsc3c2=O)cc1[S+]([O-])CC(F)(F)F (stereo not drawn) [Compound 112],1.96,1.95,100%,–,–,–,–,–,90%,90%
CC(C)(C)c1snc2ncn(-c3ccc(Cl)c([S+]([O-])CC(F)(F)F)c3)c(=O)c12 (stereo not drawn) [Compound 118],3.14,3.08,–,–,–,–,–,90%,90%,–
"Cc1cc(F)c(-n2nnc3c(cnn3C)c2=O)cc1[S+]([O-])CC(F)(F)F (stereo not drawn) [Compound 120, 3-{2-Fluoro-4-methyl-5-[(2,2,2-trifluoroethyl)sulphinyl]phenyl}-7-methyl-3,7-dihydro-4H-pyrazolo[3,4-d][1,2,3]triazin-4-one]",–,–,83%,2.14,2.14,2.1,2.1,90%,–,–
Cc1cc(F)c(-n2nnc3cnn(C)c3c2=O)cc1[S+]([O-])CC(F)(F)F (stereo not drawn) [Compound 136],–,–,83%,–,–,–,–,100%,90%,–
Cc1cc(F)c(-n2cnc3cnn(C(C)C)c3c2=O)cc1SCC(F)(F)F [Compound 161],–,–,83%,–,–,–,–,100%,100%,–
Cc1cc(F)c(-n2cnc3cnn(C(C)C)c3c2=O)cc1[S+]([O-])CC(F)(F)F (stereo not drawn) [Compound 165],–,–,100%,–,–,–,–,100%,100%,–
Cc1cc(F)c(-n2nnc3c(C)nsc3c2=O)cc1[S+]([O-])CC(F)(F)F (stereo not drawn) [Compound 183],–,–,100%,–,–,–,–,90%,–,–
Cc1cc(F)c(-n2cnc3nsc(C(C)(C)C)c3c2=O)cc1SCC(F)(F)F [Compound 191],–,–,100%,–,–,–,–,100%,–,–
CCc1nsc2ncn(-c3cc(SCC(F)(F)F)c(C)cc3F)c(=O)c12 [Compound 201],–,–,100%,–,–,–,–,90%,–,–
Cc1cc(F)c(-n2cnc3snc(C(C)(C)C)c3c2=O)cc1[S+]([O-])CC(F)(F)F (stereo not drawn) [Compound 208],–,–,83%,–,–,–,–,100%,100%,–
Cc1cc(F)c(-n2cnc3csnc3c2=O)cc1[S+]([O-])CC(F)(F)F (stereo not drawn) [Compound 212],–,–,–,–,–,–,–,90%,100%,–
